# Experimental data taken from PubChem BioAssay (NCI).
#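 These data come from cells grown in 96-well plates and exposed to compound for 48 hours at five concentrations. TGI: concentration producing complete growth inhibition.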
# Experiments:
# Assay in all cases: DTP human tumour cell line panel, 48 h
# [1] = test system: NCI-H460 lung
# [2] = test system: OVCAR-5 ovarian
# [3] = test system: UO-31 renal
# [4] = test system: A498 renal
# [5] = test system: CAKI-1 renal
# [6] = test system: SNB-19 CNS
# [7] = test system: TK-10 renal
# [8] = test system: CCRF-CEM leukemia
# [9] = test system: MDA-N
# [10] = test system: SK-MEL-5 melanoma
# [11] = test system: SK-OV-3 ovarian
# [12] = test system: SK-MEL-2 melanoma
# [13] = test system: A549 NSCLC
# [14] = test system: BT-549 breast
# [15] = test system: U251 CNS
# [16] = test system: NCI-H522 lung
# [17] = test system: HT29 colon
# [18] = test system: HOP-92 NSCLC
# [19] = test system: COLO 205 colon
# [20] = test system: SN12C renal
# [21] = test system: UACC-257 melanoma
# [22] = test system: PC-3 prostate
# [23] = test system: MCF7 breast
# [24] = test system: MDA-MB-231 breast
# [25] = test system: KM12 colon
# [26] = test system: LOX IMVI melanoma
# [27] = test system: RPMI-8226 leukemia
# [28] = test system: M14 melanoma
# [29] = test system: SNB-75 CNS
# [30] = test system: EKVX NSCLC
# [31] = test system: HL-60(TB) leukemia
# [32] = test system: SF-268 CNS
# [33] = test system: MOLT-4 leukemia
# [34] = test system: HS 578T breast
# [35] = test system: NCI-H23 lung
# [36] = test system: T-47D breast
# [37] = test system: SW-620 colon
# [38] = test system: SK-MEL-28 melanoma
# [39] = test system: UACC-62 melanoma
# [40] = test system: HCT-15 colon
# [41] = test system: HOP-62 NSCLC
# [42] = test system: MDA-MB-435
# [43] = test system: SF-295 CNS
# [44] = test system: NCI/ADR-RES ovarian
# [45] = test system: DU-145 prostate
# [46] = test system: K-562 leukemia
# [47] = test system: OVCAR-8 ovarian
# [48] = test system: IGROV1 ovarian
# [49] = test system: MALME-3M melanoma
# [50] = test system: 786-0 renal
# [51] = test system: ACHN renal
# [52] = test system: HCC-2998 colon
# [53] = test system: RXF 393 renal
# [54] = test system: OVCAR-4 ovarian
# [55] = test system: OVCAR-3 ovarian
# [56] = test system: HCT-116 colon
# [57] = test system: NCI-H226 lung
# [58] = test system: SF-539 CNS
smiles,measurement,setting,value
COc1cc(/C=C2\N=C(c3ccccc3)N(c3nc4ccc(Sc5ccccc5)cc4[nH]3)C2=O)ccc1O,TGI,[1],50 µM
same,TGI,[2],> 100 µM
same,TGI,[3],> 100 µM
same,TGI,[4],77.1 µM
same,TGI,[5],> 100 µM
same,TGI,[6],> 100 µM
same,TGI,[7],53.5 µM
same,TGI,[8],55.3 µM
same,TGI,[9],28.5 µM
same,TGI,[10],28.1 µM
same,TGI,[11],> 100 µM
same,TGI,[12],30.6 µM
same,TGI,[13],> 100 µM
same,TGI,[14],53.7 µM
same,TGI,[15],43.7 µM
same,TGI,[16],48.3 µM
same,TGI,[17],38.7 µM
same,TGI,[18],> 100 µM
same,TGI,[19],32.7 µM
same,TGI,[20],97.5 µM
same,TGI,[21],47.1 µM
same,TGI,[22],> 100 µM
same,TGI,[23],50.7 µM
same,TGI,[24],60.4 µM
same,TGI,[25],57.9 µM
same,TGI,[26],> 100 µM
same,TGI,[27],47.8 µM
same,TGI,[28],33.6 µM
same,TGI,[29],> 100 µM
same,TGI,[30],> 100 µM
same,TGI,[31],31.2 µM
same,TGI,[32],> 100 µM
same,TGI,[33],69.4 µM
same,TGI,[34],> 100 µM
same,TGI,[35],> 100 µM
same,TGI,[36],> 100 µM
same,TGI,[37],> 100 µM
same,TGI,[38],75.3 µM
same,TGI,[39],53.3 µM
same,TGI,[40],> 100 µM
same,TGI,[41],> 100 µM
same,TGI,[42],23.2 µM
same,TGI,[43],94.7 µM
same,TGI,[44],61 µM
same,TGI,[45],> 100 µM
same,TGI,[46],37.3 µM
same,TGI,[47],> 100 µM
same,TGI,[48],> 100 µM
same,TGI,[49],44.1 µM
same,TGI,[50],49 µM
same,TGI,[51],86 µM
same,TGI,[52],29.3 µM
same,TGI,[53],> 100 µM
same,TGI,[54],> 100 µM
same,TGI,[55],> 100 µM
same,TGI,[56],47.3 µM
CCOC(=O)/C=C\c1c(Cl)n(-c2ccccc2)c(=O)n(-c2ccccc2)c1=O,TGI,[1],34.1 µM
same,TGI,[2],36.9 µM
same,TGI,[3],33.2 µM
same,TGI,[4],50.8 µM
same,TGI,[5],35.7 µM
same,TGI,[6],31.6 µM
same,TGI,[7],32.3 µM
same,TGI,[8],58.7 µM
same,TGI,[9],31.8 µM
same,TGI,[11],37.2 µM
same,TGI,[12],33.5 µM
same,TGI,[13],60.1 µM
same,TGI,[14],36.1 µM
same,TGI,[15],> 100 µM
same,TGI,[16],46.5 µM
same,TGI,[17],38.4 µM
same,TGI,[18],36 µM
same,TGI,[57],50.8 µM
same,TGI,[19],34.6 µM
same,TGI,[20],36.4 µM
same,TGI,[21],35.5 µM
same,TGI,[22],33.3 µM
same,TGI,[23],46 µM
same,TGI,[24],36.3 µM
same,TGI,[25],35.8 µM
same,TGI,[26],50.6 µM
same,TGI,[28],33.7 µM
same,TGI,[29],29.2 µM
same,TGI,[30],48.5 µM
same,TGI,[31],23.4 µM
same,TGI,[32],44.7 µM
same,TGI,[33],87.2 µM
same,TGI,[34],65.2 µM
same,TGI,[35],41.7 µM
same,TGI,[36],42.2 µM
same,TGI,[37],61.6 µM
same,TGI,[38],41.1 µM
same,TGI,[39],34.8 µM
same,TGI,[40],39.7 µM
same,TGI,[41],40 µM
same,TGI,[42],44.8 µM
same,TGI,[43],40.2 µM
same,TGI,[44],72.7 µM
same,TGI,[45],34.9 µM
same,TGI,[47],34.7 µM
same,TGI,[48],36.2 µM
same,TGI,[49],44 µM
same,TGI,[50],39.6 µM
same,TGI,[51],35.1 µM
same,TGI,[52],33.2 µM
same,TGI,[53],32.9 µM
same,TGI,[54],> 100 µM
same,TGI,[55],36.1 µM
same,TGI,[58],31.8 µM
same,TGI,[56],54.9 µM
COc1ccc(OC)c2c1C(=O)C(=O)C(Cl)=C2O,TGI,[1],> 100 µM
same,TGI,[2],> 100 µM
same,TGI,[3],> 100 µM
same,TGI,[4],> 100 µM
same,TGI,[5],> 100 µM
same,TGI,[6],> 100 µM
same,TGI,[7],> 100 µM
same,TGI,[8],> 100 µM
same,TGI,[9],> 100 µM
same,TGI,[10],> 100 µM
same,TGI,[11],> 100 µM
same,TGI,[12],> 100 µM
same,TGI,[13],> 100 µM
same,TGI,[14],> 100 µM
same,TGI,[15],> 100 µM
same,TGI,[16],> 100 µM
same,TGI,[17],> 100 µM
same,TGI,[18],> 100 µM
same,TGI,[57],> 100 µM
same,TGI,[19],> 100 µM
same,TGI,[21],> 100 µM
same,TGI,[22],> 100 µM
same,TGI,[23],> 100 µM
same,TGI,[24],> 100 µM
same,TGI,[25],> 100 µM
same,TGI,[26],> 100 µM
same,TGI,[27],> 100 µM
same,TGI,[28],> 100 µM
same,TGI,[29],> 100 µM
same,TGI,[31],> 100 µM
same,TGI,[32],> 100 µM
same,TGI,[33],> 100 µM
same,TGI,[34],> 100 µM
same,TGI,[35],> 100 µM
same,TGI,[36],> 100 µM
same,TGI,[37],> 100 µM
same,TGI,[38],> 100 µM
same,TGI,[39],> 100 µM
same,TGI,[40],> 100 µM
same,TGI,[41],> 100 µM
same,TGI,[42],> 100 µM
same,TGI,[43],> 100 µM
same,TGI,[44],> 100 µM
same,TGI,[45],> 100 µM
same,TGI,[46],> 100 µM
same,TGI,[47],> 100 µM
same,TGI,[48],> 100 µM
same,TGI,[49],> 100 µM
same,TGI,[50],> 100 µM
same,TGI,[51],> 100 µM
same,TGI,[52],> 100 µM
same,TGI,[53],> 100 µM
same,TGI,[54],> 100 µM
same,TGI,[55],> 100 µM
same,TGI,[58],> 100 µM
same,TGI,[56],> 100 µM
